Patent US9423396B2, “Bodipy structure fluorescence probes for diverse biological applications” (National University of Singapore, priority 2011, dated 2016)

Experiment: Spectroscopic measurements (absorption, emission, quantum yield, extinction coefficient)
Assay type: physicochemical
[1] = BDNCA library, extinction coefficient; in M-1 cm-1 (unit assumed)
[2] = BDNCA library, fluorescence emission
[3] = BDNCA library, difference emission minus absorption

SMILES | Qunt. Yield (BDNCA library) | Abs (BDNCA library, absorption) [nm] | ε [1] | Flu [2] | Flu-Abs [3] | Abs (absorption maximum, BDNCA library) [nm] | Flu-Abs (difference of emission and absorption maxima) | ε (extinction coefficient, BDNCA library; in M-1 cm-1 (unit assumed)) | Flu (fluorescence emission maximum, BDNCA library) | Qunt. Yield (quantum yield, BDNCA library)
CC1=CC(/C=C/c2ccc(N(C)CCC#N)cc2)=[N+]2C1=C(c1ccc(NC(=O)CCl)cc1)c1cccn1[B-]2(F)F [BDNCA-3] | weak | 605 | 73,593 | weak |  |  |  |  |  | 
CC1=CC(/C=C/c2ccc(OCc3ccccc3)c(OCc3ccccc3)c2)=[N+]2C1=C(c1ccc(NC(=O)CCl)cc1)c1cccn1[B-]2(F)F [BDNCA-4] | 0.18 | 570 | 79,908 | 611 | 41 |  |  |  |  | 
CC1=CC(/C=C/c2c3ccccc3cc3ccccc23)=[N+]2C1=C(c1ccc(NC(=O)CCl)cc1)c1cccn1[B-]2(F)F [BDNCA-6] | weak | 536 | 41,465 | weak |  |  |  |  |  | 
COc1ccc(/C=C/C2=[N+]3C(=C(c4ccc(NC(=O)CCl)cc4)c4cccn4[B-]3(F)F)C(C)=C2)cc1OCc1ccccc1 [BDNCA-7] | 0.19 | 570 | 87,872 | 616 | 46 |  |  |  |  | 
CC1=CC(/C=C/c2ccc(-n3ccnc3)cc2)=[N+]2C1=C(c1ccc(NC(=O)CCl)cc1)c1cccn1[B-]2(F)F [BDNCA-8] | 0.04 | 562 | 29,108 | 582 | 20 |  |  |  |  | 
Cc1cccc(/C=C/c2cc(C)c3n2[B-](F)(F)[N+]2=CC=CC2=C3c2ccc(NC(=O)CCl)cc2)c1 [BDNCA-9] | 0.10 | 556 | 47,780 | 575 | 19 |  |  |  |  | 
CC1=CC(/C=C/c2ccc(Cl)cc2)=[N+]2C1=C(c1ccc(NC(=O)CCl)cc1)c1cccn1[B-]2(F)F [BDNCA-12] | 0.10 | 557 | 49,428 | 576 | 19 |  |  |  |  | 
CC1=CC(/C=C/c2ccc(N(c3ccccc3)c3ccccc3)cc2)=[N+]2C1=C(c1ccc(NC(=O)CCl)cc1)c1cccn1[B-]2(F)F [BDNCA-14] |  | 599 | 35,149 |  |  |  |  |  |  | 
CC1=CC(/C=C/c2ccc(C#N)cc2)=[N+]2C1=C(c1ccc(NC(=O)CCl)cc1)c1cccn1[B-]2(F)F [BDNCA-15] | 0.13 | 560 | 49,977 | 578 | 18 |  |  |  |  | 
CCCCN(CCCC)c1ccc(/C=C/C2=[N+]3C(=C(c4ccc(NC(=O)CCl)cc4)c4cccn4[B-]3(F)F)C(C)=C2)cc1 [BDNCA-17] | weak | 627 | 52,998 | weak |  |  |  |  |  | 
CC1=CC(/C=C/c2ccc(C(C)C)cc2)=[N+]2C1=C(c1ccc(NC(=O)CCl)cc1)c1cccn1[B-]2(F)F [BDNCA-19] | 0.13 | 558 | 61,236 | 580 | 22 |  |  |  |  | 
CC1=CC(/C=C/c2cccc(Oc3ccccc3)c2)=[N+]2C1=C(c1ccc(NC(=O)CCl)cc1)c1cccn1[B-]2(F)F [BDNCA-20] | 0.11 | 556 | 51,625 | 576 | 20 |  |  |  |  | 
CC1=CC(/C=C/c2cccc3ccccc23)=[N+]2C1=C(c1ccc(NC(=O)CCl)cc1)c1cccn1[B-]2(F)F [BDNCA-25] | 0.09 | 566 | 32,952 | 594 | 28 |  |  |  |  | 
CC1=CC(/C=C/c2ccccc2)=[N+]2C1=C(c1ccc(NC(=O)CCl)cc1)c1cccn1[B-]2(F)F [BDNCA-27] | 0.11 | 554 | 73,318 | 577 | 23 |  |  |  |  | 
COc1cc(/C=C/C2=[N+]3C(=C(c4ccc(NC(=O)CCl)cc4)c4cccn4[B-]3(F)F)C(C)=C2)cc(Cl)c1O [BDNCA-29] | 0.01 | 567 | 25,812 | 597 | 30 |  |  |  |  | 
COc1ccc(/C=C/c2cc(C)c3n2[B-](F)(F)[N+]2=CC=CC2=C3c2ccc(NC(=O)CCl)cc2)c2ccccc12 [BDNCA-32] | 0.06 | 583 | 27,735 | 649 | 66 |  |  |  |  | 
CC1=CC(/C=C/c2ccc(C)c3ccccc23)=[N+]2C1=C(c1ccc(NC(=O)CCl)cc1)c1cccn1[B-]2(F)F [BDNCA-36] | 0.08 | 572 | 30,755 | 610 | 38 |  |  |  |  | 
CC1=CC(/C=C/c2csc3ccccc23)=[N+]2C1=C(c1ccc(NC(=O)CCl)cc1)c1cccn1[B-]2(F)F [BDNCA-37] | 0.14 | 567 | 71,121 | 600 | 33 |  |  |  |  | 
CC(=O)Oc1ccc(/C=C/c2cc(C)c3n2[B-](F)(F)[N+]2=CC=CC2=C3c2ccc(NC(=O)CCl)cc2)cc1 [BDNCA-41] |  |  |  |  |  | 565 | 29 | 47,780 | 594 | 0.13

SMILES | Qunt. Yield (BDNCA library) | Abs (BDNCA library, absorption) [nm] | ε [1] | Flu [2] | Flu-Abs [3] | Abs (absorption maximum, BDNCA library) [nm] | Flu-Abs (difference of emission and absorption maxima) | ε (extinction coefficient, BDNCA library; in M-1 cm-1 (unit assumed)) | Flu (fluorescence emission maximum, BDNCA library) | Qunt. Yield (quantum yield, BDNCA library)
COc1ccc(Oc2cccc(/C=C/C3=[N+]4C(=C(c5ccc(NC(=O)CCl)cc5)c5cccn5[B-]4(F)F)C(C)=C3)c2)cc1 [BDNCA-42] | 0.08 | 556 | 54,645 | 577 | 21 |  |  |  |  | 
COc1cc(C=CC=CC2=[N+]3C(=C(c4ccc(NC(=O)CCl)cc4)c4cccn4[B-]3(F)F)C(C)=C2)ccc1OC(C)=O [BDNCA-44] | weak | 580 | 12,632 | weak |  |  |  |  |  | 
CCCCCCOc1ccc(/C=C/C2=[N+]3C(=C(c4ccc(NC(=O)CCl)cc4)c4cccn4[B-]3(F)F)C(C)=C2)cc1 [BDNCA-45] | 0.13 | 566 | 82,929 | 598 | 32 |  |  |  |  | 
CCCCOc1ccc(/C=C/C2=[N+]3C(=C(c4ccc(NC(=O)CCl)cc4)c4cccn4[B-]3(F)F)C(C)=C2)cc1 [BDNCA-46] | 0.10 | 566 | 42,563 | 598 | 32 |  |  |  |  | 
C=CCOc1ccc(/C=C/C2=[N+]3C(=C(c4ccc(NC(=O)CCl)cc4)c4cccn4[B-]3(F)F)C(C)=C2)cc1 [BDNCA-48] | 0.07 | 566 | 44,211 | 597 | 31 |  |  |  |  | 
CCOC(OCC)c1ccc(/C=C/C2=[N+]3C(=C(c4ccc(NC(=O)CCl)cc4)c4cccn4[B-]3(F)F)C(C)=C2)cc1 [BDNCA-49] | 0.03 | 564 | 20,046 | 581 | 17 |  |  |  |  | 
Cc1cc(/C=C/c2ccc(OCc3ccc(Br)cc3)cc2)n2c1C(c1ccc(NC(=O)CCl)cc1)=C1C=CC=[N+]1[B-]2(F)F [BDNCA-52] | 0.05 | 556 | 36,247 | 580 | 24 |  |  |  |  | 
CCOc1ccc(/C=C/C2=[N+]3C(=C(c4ccc(NC(=O)CCl)cc4)c4cccn4[B-]3(F)F)C(C)=C2)cc1OCC [BDNCA-53] | 0.06 | 570 | 31,579 | 621 | 51 |  |  |  |  | 
COc1ccc(Br)cc1/C=C/c1cc(C)c2n1[B-](F)(F)[N+]1=CC=CC1=C2c1ccc(NC(=O)CCl)cc1 [BDNCA-54] | 0.07 | 562 | 38,169 | 581 | 19 |  |  |  |  | 
CC1=CC(/C=C/c2cc(Cl)cc(Cl)c2O)=[N+]2C1=C(c1ccc(NC(=O)CCl)cc1)c1cccn1[B-]2(F)F [BDNCA-57] | 0.02 | 561 | 23,066 | 577 | 16 |  |  |  |  | 
COc1ccc2ccccc2c1/C=C/C1=[N+]2C(=C(c3ccc(NC(=O)CCl)cc3)c3cccn3[B-]2(F)F)C(C)=C1 [BDNCA-61] | 0.08 | 581 | 33,776 | 627 | 46 |  |  |  |  | 
COc1ccc(/C=C/C2=[N+]3C(=C(c4ccc(NC(=O)CCl)cc4)c4cccn4[B-]3(F)F)C(C)=C2)cc1OC [BDNCA-62] | 0.08 | 570 | 38,169 | 618 | 48 |  |  |  |  | 
CCOc1ccc(/C=C/C2=[N+]3C(=C(c4ccc(NC(=O)CCl)cc4)c4cccn4[B-]3(F)F)C(C)=C2)cc1OC [BDNCA-63] | 0.07 | 572 | 35,149 | 623 | 51 |  |  |  |  | 
CC1=CC(/C=C/c2ccc(-c3ccccc3)s2)=[N+]2C1=C(c1ccc(NC(=O)CCl)cc1)c1cccn1[B-]2(F)F [BDNCA-65] | 0.04 | 593 | 30,755 | 630 | 37 |  |  |  |  | 
CC1=CC(/C=C/c2c(C)c(C)c(C)c(C)c2C)=[N+]2C1=C(c1ccc(NC(=O)CCl)cc1)c1cccn1[B-]2(F)F [BDNCA-67] | 0.12 | 542 | 36,522 | 582 | 40 |  |  |  |  | 
CC1=CC(/C=C/c2ccc(OC(F)(F)F)cc2)=[N+]2C1=C(c1ccc(NC(=O)CCl)cc1)c1cccn1[B-]2(F)F [BDNCA-68] | 0.05 | 553 | 27,735 | 573 | 20 |  |  |  |  | 
CC1=CC(/C=C/c2ccc(/C=C/c3ccccc3)cc2)=[N+]2C1=C(c1ccc(NC(=O)CCl)cc1)c1cccn1[B-]2(F)F [BDNCA-69] | 0.09 | 577 | 40,641 | 610 | 33 |  |  |  |  | 
COc1ccc2c(OC)ccc(/C=C/C3=[N+]4C(=C(c5ccc(NC(=O)CCl)cc5)c5cccn5[B-]4(F)F)C(C)=C3)c2c1 [BDNCA-70] | 0.04 | 587 | 29,931 | 677 | 90 |  |  |  |  | 
